Assay results: BindingDB's records for doi:10.3109/14756366.2012.757603 (Sakarya University, 2014)

How the values were obtained:
[1] = biological target: Carbonic anhydrase 1 (Homo sapiens, UniProt P00915); assay: In Vitro Inhibition Assay
Method: (§1) For the inhibition studies of sulfonamide, different concentrations of these compounds were added to the enzyme. Activity percentage values of CA for different concentrations of each sulfonamide were determined by regression analysis usingMicrosoft Office 2000 Excel (New York, NY). CA enzyme activity without a sulfonamide solution was accepted to be 100%.

[2] = biological target: Carbonic anhydrase 2 (Homo sapiens, UniProt P00918); assay: In Vitro Inhibition Assay
Method: as §1

Carbonic anhydrase 1, sequence (P00915 whole entry): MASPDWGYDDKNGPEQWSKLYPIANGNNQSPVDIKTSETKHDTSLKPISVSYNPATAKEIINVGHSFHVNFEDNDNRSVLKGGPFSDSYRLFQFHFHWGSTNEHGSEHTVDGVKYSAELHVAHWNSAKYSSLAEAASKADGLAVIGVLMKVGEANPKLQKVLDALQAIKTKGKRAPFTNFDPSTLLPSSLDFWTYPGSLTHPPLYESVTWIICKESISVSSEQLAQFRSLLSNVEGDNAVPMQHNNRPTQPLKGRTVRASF

NS(=O)(=O)c1ccc(NC=C2C(=O)CC(c3ccco3)CC2=O)cc1 (stereo unspecified) [4-((4-(Furan-2-yl)-2,6-dioxocyclohexylidene)methylamino)benzenesulfonamide (2d)]
IC50 [1]: 8.61 µM
IC50 [2]: 7.21 µM

NS(=O)(=O)c1ccc(NC=C2C(=O)c3ccccc3C2=O)cc1 [4-((1,3-Dioxo-1H-inden-2(3H)-ylidene)methylamino)benzene-sulfonamide (2g)]
IC50 [1]: 3.19 µM
IC50 [2]: 3.36 µM

NS(=O)(=O)c1ccc(NC=C2C(=O)CCC2=O)cc1 [4-((2,5-Dioxocyclopentylidene)methylamino)benzenesulfonamide (2h)]
IC50 [1]: 4.8 µM
IC50 [2]: 3.36 µM

CC1(C)OC(=O)C(=CNc2ccc(S(N)(=O)=O)cc2)C(=O)O1 [4-((2,2-Dimethyl-4,6-dioxo-1,3-dioxan-5-ylidene)methylamino)benzene-sulfonamide (2c)]
IC50 [1]: 6.56 µM
IC50 [2]: 18.6 µM

NS(=O)(=O)c1ccc(NC=C2C(=O)CCCC2=O)cc1 [4-((2,6-Dioxocyclohexylidene)methylamino)benzenesulfonamide (2a)]
IC50 [1]: 4.25 µM
IC50 [2]: 4.93 µM

CN1C(=O)C(=CNc2ccc(S(N)(=O)=O)cc2)C(=O)N(C)C1=O [4-((1,3-Dimethyl-2,4,6-trioxo-tetrahydropyrimidin-5(6H)-ylidene)methylamino)benzene-sulfonamide (2e)]
IC50 [1]: 5.2 µM
IC50 [2]: 2.52 µM

CC1(C)CC(=O)C(=CNc2ccc(S(N)(=O)=O)cc2)C(=O)C1 [4-((4,4-Dimethyl-2,6-dioxocyclohexylidene)methylamino)benzene-sulfonamide (2b)]
IC50 [1]: 2.12 µM
IC50 [2]: 6.41 µM

NS(=O)(=O)c1ccc(NC=C2C(=O)NC(=O)NC2=O)cc1 [4-((2,4,6-Trioxo-tetrahydropyrimidin-5(6H)-ylidene)methylamino)benzene-sulfonamide (2f)]
IC50 [1]: 10.9 µM
IC50 [2]: 9.92 µM
